Results: patent US20250230155A1 (Vanderbilt University, priority 2021, published 2025)

Biological target: T1, human mAChR M4 (Homo sapiens, UniProt P08173)
T1 construct: expressed in transfected cells
T1 sequence (P08173 1-479): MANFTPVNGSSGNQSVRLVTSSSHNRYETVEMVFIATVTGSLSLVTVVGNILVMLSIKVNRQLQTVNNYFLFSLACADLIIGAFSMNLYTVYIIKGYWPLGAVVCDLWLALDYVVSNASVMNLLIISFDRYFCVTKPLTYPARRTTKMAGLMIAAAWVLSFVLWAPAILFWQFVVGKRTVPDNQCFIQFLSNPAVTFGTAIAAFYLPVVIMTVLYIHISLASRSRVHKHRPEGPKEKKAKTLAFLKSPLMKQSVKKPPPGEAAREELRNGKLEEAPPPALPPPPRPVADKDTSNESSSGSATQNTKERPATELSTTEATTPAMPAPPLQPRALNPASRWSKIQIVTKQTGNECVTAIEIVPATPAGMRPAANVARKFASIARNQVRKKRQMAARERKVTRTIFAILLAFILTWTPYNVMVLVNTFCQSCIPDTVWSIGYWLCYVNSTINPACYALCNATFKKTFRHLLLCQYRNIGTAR
Assay: mAChR M4 cell-based functional assay (calcium mobilization, CHO-K1 hM4-Gqi5 cells)
Conditions: for Emax at 30 µM: CHO-K1, % ACh maximum at 30 μM; for EC50: positive allosteric modulator activity, increase in the EC20 acetylcholine response, CHO-K1 hM4-Gqi5 cells, read-out: Human M4 EC50
Outline: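 Fluorescent calcium read-out (Fluo-4 AM, FDSS, 1 Hz) in hM4-Gqi5 CHO-K1 cells, 11-point 1:3 compound series. Agonism scored on compound addition, PAM activity as increase of the 144 s EC20 acetylcholine response, antagonism as decrease of the 230 s EC80 response; four-parameter logistic fits give EC50 and Emax.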

Row | Compound | Emax at 30 µM (human M4) [%] | EC50 [nM] | Emax (CHO-K1) [%] | Emax (% ACh maximum at 30 μM, human M4) [%]
1 | Cc1ccccc1OCCOc1cnc2c(c1)CN(c1ncc(C#N)cc1C)CC2 [Example 430, 5-methyl-6-(3-(2-(o-tolyloxy)ethoxy)-7,8-dihydro-1,6-naphthyridin-6(5H)-yl)nicotinonitrile] | 42 | 6530 |  | 
2 | Cc1nc(Cl)c(C)c(N2CCc3ncccc3C2)n1 [compound 83, 6-(6-chloro-2,5-dimethyl-pyrimidin-4-yl)-7,8-dihydro-5H-1,6-naphthyridine] |  | 1540 | 77 | 
3 | Cc1c(C#N)nnc(N2CCc3ncc(Oc4cccc(F)c4F)cc3C2)c1C [Example 352, 6-(3-(2,3-difluorophenoxy)-7,8-dihydro-1,6-naphthyridin-6(5H)-yl)-4,5-dimethylpyridazine-3-carbonitrile] | 64 | 233 |  | 
4 | COc1ccc(Oc2cnc3c(c2)CN(c2nc(C)nc(Cl)c2C)CC3)cn1 [compound 205, 6-(6-chloro-2,5-dimethyl-pyrimidin-4-yl)-3-[(6-methoxy-3-pyridyl)oxy]-7,8-dihydro-5H-1,6-naphthyridine] | 67 | 1340 |  | 
5 | Cc1cc(C#N)nnc1N1CCc2ncc(Nc3ccnn3C)cc2C1 [Example 311, 5-methyl-6-(3-((1-methyl-1H-pyrazol-5-yl)amino)-7,8-dihydro-1,6-naphthyridin-6(5H)-yl)pyridazine-3-carbonitrile] | 94 | 239 |  | 
6 | Cc1nc(C)c(-c2cnc3c(c2)CN(c2nnc(C#N)c(C)c2C)CC3)s1 [compound 294, 6-(3-(2,4-dimethylthiazol-5-yl)-7,8-dihydro-1,6-naphthyridin-6(5H)-yl)-4,5-dimethylpyridazine-3-carbonitrile] | 83 | 292 |  | 
7 | Cc1c(C#N)nnc(N2CCc3ncc(-c4cnn(CCN5CCOCC5)c4)cc3C2)c1C [Example 325, 4,5-dimethyl-6-(3-(1-(2-morpholinoethyl)-1H-pyrazol-4-yl)-7,8-dihydro-1,6-naphthyridin-6(5H)-yl)pyridazine-3-carbonitrile] | 51 | 2950 |  | 
8 | Cc1cc(C#N)cnc1N1CCc2ncc(Nc3c(F)cccc3Cl)cc2C1 [compound 111, 6-[3-(2-chloro-6-fluoro-anilino)-7,8-dihydro-5H-1,6-naphthyridin-6-yl]-5-methyl-pyridine-3-carbonitrile] | 93 | 345 |  | 
9 | Cc1cc(C#N)cnc1N1Cc2cc(N3CCOCC3)cnc2C(C)C1 (single isomer, unassigned) [Example 406, 5-methyl-6-(8-methyl-3-morpholino-7,8-dihydro-1,6-naphthyridin-6(5H)-yl)nicotinonitrile] |  | 326 |  | 96
10 | Cc1cc(C(=O)N2CCc3ccncc3C2)nnc1N1CCc2ncc(C(F)(F)F)cc2C1 [Example 499, (3,4-dihydro-2,7-naphthyridin-2(1H)-yl)(5-methyl-6-(3-(trifluoromethyl)-7,8-dihydro-1,6-naphthyridin-6(5H)-yl)pyridazin-3-yl)methanone] | 88 | 2670 |  | 
11 | Cc1cc(C(=O)NCc2ccncc2Cl)nnc1N1CCc2ncc(C(F)(F)F)cc2C1 [Example 497, N-((3-chloropyridin-4-yl)methyl)-5-methyl-6-(3-(trifluoromethyl)-7,8-dihydro-1,6-naphthyridin-6(5H)-yl)pyridazine-3-carboxamide] | 101 | 64 |  | 
12 | COC(=O)c1ccc(CNC(=O)c2cnc(N3CCc4ncccc4C3)c(C)c2)cn1 [compound 142, methyl 5-[[[6-(7,8-dihydro-5H-1,6-naphthyridin-6-yl)-5-methyl-pyridine-3-carbonyl]amino]methyl]pyridine-2-carboxylate] | 50 | ≥ 10000 |  | 
13 | Cc1cc(C#N)cnc1N1CCc2ncc(-c3cccnc3)cc2C1 [compound 191, 5-methyl-6-[3-(3-pyridyl)-7,8-dihydro-5H-1,6-naphthyridin-6-yl]pyridine-3-carbonitrile] | 98 | 187 |  | 
14 | COC(=O)c1cnc(N2CCc3ncccc3C2)c(C)c1 [compound 71, methyl 6-(7,8-dihydro-5H-1,6-naphthyridin-6-yl)-5-methyl-pyridine-3-carboxylate] |  | 3380 | 102 | 
15 | COc1cnc(Cl)c(-c2cnc3c(c2)CN(c2nnc(C#N)c(C)c2C)CC3)c1 [compound 52, 6-[3-(2-chloro-5-methoxy-3-pyridyl)-7,8-dihydro-5H-1,6-naphthyridin-6-yl]-4,5-dimethyl-pyridazine-3-carbonitrile] | 64 | 305 |  | 
16 | Cc1cc(C(=O)NC2CCCC2)cnc1N1CCc2ncccc2C1 [compound 65, N-cyclopentyl-6-(7,8-dihydro-5H-1,6-naphthyridin-6-yl)-5-methyl-pyridine-3-carboxamide] | 52 | ≥ 10000 |  | 
17 | Cc1cc(C(N)=O)cnc1N1CCc2ncc(C(F)(F)F)cc2C1 [Example 448, 5-methyl-6-(3-(trifluoromethyl)-7,8-dihydro-1,6-naphthyridin-6(5H)-yl)nicotinamide] | 102 | 537 |  | 
18 | Cc1cc(C(=O)NCc2ccncc2)cnc1N1CCc2ncc(-c3cccnc3F)cc2C1 [compound 178, 6-[3-(2-fluoro-3-pyridyl)-7,8-dihydro-5H-1,6-naphthyridin-6-yl]-5-methyl-N-(4-pyridylmethyl)pyridine-3-carboxamide] | 87 | 262 |  | 
19 | Cc1cc(CNC(=O)c2cnc(N3CCc4ncccc4C3)c(C)c2)ccn1 [compound 129, 6-(7,8-dihydro-5H-1,6-naphthyridin-6-yl)-5-methyl-N-[(2-methyl-4-pyridyl)methyl]pyridine-3-carboxamide] | 61 | 3340 |  | 
20 | Cc1cc(C(=O)NCc2ccc(-n3ccnc3)nc2)cnc1N1CCc2ncccc2C1 [compound 148, 6-(7,8-dihydro-5H-1,6-naphthyridin-6-yl)-N-[(6-imidazol-1-yl-3-pyridyl)methyl]-5-methyl-pyridine-3-carboxamide] | 67 | 3540 |  | 
21 | Cc1c(C(=O)NCc2cccnc2)nnc(N2CCc3ncccc3C2)c1C [compound 136, 6-(7,8-dihydro-5H-1,6-naphthyridin-6-yl)-4,5-dimethyl-N-(3-pyridylmethyl)pyridazine-3-carboxamide] | 88 | 1880 |  | 
22 | Cc1cc(C(=O)N2CC(F)(F)C2)nnc1N1CCc2ncc(-n3cccn3)cc2C1 [Example 533, (6-(3-(1H-pyrazol-1-yl)-7,8-dihydro-1,6-naphthyridin-6(5H)-yl)-5-methylpyridazin-3-yl)(3,3-difluoroazetidin-1-yl)methanone] | 88 | 107 |  | 
23 | COc1ccc(Oc2cnc3c(c2)CN(c2ncc(C#N)cc2C)CC3)cn1 [compound 182, 6-[3-[(6-methoxy-3-pyridyl)oxy]-7,8-dihydro-5H-1,6-naphthyridin-6-yl]-5-methyl-pyridine-3-carbonitrile] | 75 | 439 |  | 
24 | Cc1cc(C#N)cnc1N1CCc2ncc(N3CCCn4nc(C(C)(C)C)cc43)cc2C1 [Example 414, 6-(3-(2-(tert-butyl)-6,7-dihydropyrazolo[1,5-a]pyrimidin-4(5H)-yl)-7,8-dihydro-1,6-naphthyridin-6(5H)-yl)-5-methylnicotinonitrile] | 65 | 739 |  | 
25 | Cc1ccc(F)c(Nc2cnc3c(c2)CN(c2ncc(C#N)cc2C)CC3)c1 [compound 115, 6-[3-(2-fluoro-5-methyl-anilino)-7,8-dihydro-5H-1,6-naphthyridin-6-yl]-5-methyl-pyridine-3-carbonitrile] | 92 | 995 |  | 
26 | Cc1cc(C(=O)N2CC(C)(F)C2)nnc1N1CCc2ncc(N3CCCn4nccc43)cc2C1 [Example 546, (6-(3-(6,7-dihydropyrazolo[1,5-a]pyrimidin-4(5H)-yl)-7,8-dihydro-1,6-naphthyridin-6(5H)-yl)-5-methylpyridazin-3-yl)(3-fluoro-3-methylazetidin-1-yl)methanone] | 116 | 16 |  | 
27 | Cc1nc(Cl)nc(N2CCc3ncc(C(F)(F)F)cc3C2)c1C [compound 253, 6-(2-chloro-5,6-dimethylpyrimidin-4-yl)-3-(trifluoromethyl)-5,6,7,8-tetrahydro-1,6-naphthyridine] | 94 | 200 |  | 
28 | Cc1cc(C#N)nnc1N1CCc2ncc(C(C)(O)C(F)(F)F)cc2C1 (stereo not shown) [Example 424, 5-methyl-6-(3-(1,1,1-trifluoro-2-hydroxypropan-2-yl)-7,8-dihydro-1,6-naphthyridin-6(5H)-yl)pyridazine-3-carbonitrile] | 86 | 1430 |  | 
29 | Cc1cc(C(=O)N2CC(C(F)F)C2)nnc1N1CCc2ncc(Nc3ccnn3C)cc2C1 [Example 558, (3-(difluoromethyl)azetidin-1-yl)(5-methyl-6-(3-((1-methyl-1H-pyrazol-5-yl)amino)-7,8-dihydro-1,6-naphthyridin-6(5H)-yl)pyridazin-3-yl)methanone] | 90 | 101 |  | 
